The IC50 is the midpoint of a concentration-inhibition curve.

In data set [1] the target is T1, Ephrin type-B receptor 4 (Homo sapiens) (UniProt P54760).
T1 sequence (whole entry): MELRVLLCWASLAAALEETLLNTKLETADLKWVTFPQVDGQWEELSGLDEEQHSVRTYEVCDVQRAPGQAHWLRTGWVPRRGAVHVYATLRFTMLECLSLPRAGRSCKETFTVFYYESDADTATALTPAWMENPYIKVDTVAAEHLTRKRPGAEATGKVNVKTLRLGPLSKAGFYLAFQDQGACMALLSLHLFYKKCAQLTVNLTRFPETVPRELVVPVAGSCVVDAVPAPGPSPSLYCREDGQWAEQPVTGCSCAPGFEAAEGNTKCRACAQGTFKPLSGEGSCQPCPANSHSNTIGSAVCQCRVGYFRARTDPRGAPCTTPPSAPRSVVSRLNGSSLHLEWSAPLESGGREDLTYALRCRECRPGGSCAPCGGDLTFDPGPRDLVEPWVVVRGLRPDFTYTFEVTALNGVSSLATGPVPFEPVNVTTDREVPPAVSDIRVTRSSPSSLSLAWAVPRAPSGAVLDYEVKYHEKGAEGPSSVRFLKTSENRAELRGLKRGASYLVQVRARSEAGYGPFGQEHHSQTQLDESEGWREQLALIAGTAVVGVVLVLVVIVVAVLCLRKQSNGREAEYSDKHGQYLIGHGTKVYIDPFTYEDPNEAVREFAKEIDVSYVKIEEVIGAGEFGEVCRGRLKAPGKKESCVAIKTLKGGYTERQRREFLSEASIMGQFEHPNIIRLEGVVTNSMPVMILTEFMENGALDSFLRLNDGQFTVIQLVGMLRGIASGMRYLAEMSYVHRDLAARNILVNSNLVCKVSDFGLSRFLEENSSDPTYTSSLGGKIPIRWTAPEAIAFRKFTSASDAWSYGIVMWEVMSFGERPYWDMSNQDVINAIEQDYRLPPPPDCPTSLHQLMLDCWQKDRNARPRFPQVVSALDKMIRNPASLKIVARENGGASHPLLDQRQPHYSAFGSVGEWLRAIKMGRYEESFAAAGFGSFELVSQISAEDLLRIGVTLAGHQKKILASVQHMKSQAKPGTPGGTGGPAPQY
The data set is described as follows: Induction of EphB4 degradation in human U87 cells at 2 uM incubated for 48 hrs in presence of (2S,4R)-1-((S)-2-(5-azidopentanamido)-3,3-dimethylbutanoyl)-4-hydroxy-N-(4-(4-methylthiazol-5-yl)benzyl)pyrrolidine-2-carboxamide by Western blot analysis. It is filed as cell-based. (In general: A western blot detects proteins with antibodies after separation by electrophoresis.)

Another data set deals with A549. The data set is described as follows: Antiproliferative activity against human A549 cells incubated for 48 hrs in presence of (2S,4R)-1-((S)-2-(5-azidopentanamido)-3,3-dimethylbutanoyl)-4-hydroxy-N-(4-(4-methylthiazol-5-yl)benzyl)pyrrolidine-2-carboxamide by MTT assay. Format: functional, cell-based. The following applies: A549, 48 h.
For data set [2], the system named is HEK293. The data set is described as follows: Cytotoxicity against HEK293 cells at high concentration incubated for 48 hrs in presence of (2S,4R)-1-((S)-2-(5-azidopentanamido)-3,3-dimethylbutanoyl)-4-hydroxy-N-(4-(4-methylthiazol-5-yl)benzyl)pyrrolidine-2-carboxamide by MTT assay. Format: toxicity, cell-based. To be noted: human, hek293, 48 h.
The subject of data set [3] is U-87 MG. The data set is described as follows: Induction of apoptosis in human U87 cells assessed as necrotic cells at 0.1 uM incubated for 48 hrs in presence of (2S,4R)-1-((S)-2-(5-azidopentanamido)-3,3-dimethylbutanoyl)-4-hydroxy-N-(4-(4-methylthiazol-5-yl)benzyl)pyrrolidine-2-carboxamide by Annexin V-FLTC/PI staining based flow cytometry (reference value: 0.60 %). It is filed as functional, U-87MG ATCC.

Data set [4] has as its target Serine/threonine-protein kinase B-raf (Homo sapiens) (UniProt P15056). The data set is described as follows: Induction of BRAF degradation in human U87 cells upto 10 uM incubated for 48 hrs by Western blot analysis. It is filed as cell-based.
Data set [5] deals with U-87 MG. The data set is described as follows: Induction of cell cycle arrest at S phase in human U87 cells incubated for 48 hrs in presence of (2S,4R)-1-((S)-2-(5-azidopentanamido)-3,3-dimethylbutanoyl)-4-hydroxy-N-(4-(4-methylthiazol-5-yl)benzyl)pyrrolidine-2-carboxamide by PI staining based flow cytometry. It is filed as functional. To be noted: U-87MG ATCC, dose 0.1-1 µM. In general terms: In flow cytometry, cells or beads pass a laser one at a time.

Data set [6] has as its system U-87 MG. The data set is described as follows: Antiproliferative activity against human U87 cells incubated for 48 hrs in presence of 4-azido-N-(2-(2,6-dioxopiperidin-3-yl)-1,3-dioxoisoindolin-4-yl)butanamide by MTT assay. Format: functional, cell-based, U-87MG ATCC. Background: Formazan colour is commonly taken as a measure of viable cells.
The test system of data set [7] is U-87 MG. The data set is described as follows: Induction of apoptosis in human U87 cells assessed as viable cells at 20 uM incubated for 48 hrs in presence of (2S,4R)-1-((S)-2-(5-azidopentanamido)-3,3-dimethylbutanoyl)-4-hydroxy-N-(4-(4-methylthiazol-5-yl)benzyl)pyrrolidine-2-carboxamide by Annexin V-FLTC/PI staining based flow cytometry (reference value: 86.74 %). The following applies: read-out: Activity. Format: functional, U-87MG ATCC.

In data set [8] the test system is HEK293. The data set is described as follows: Cytotoxicity against HEK293 cells at low concentration incubated for 48 hrs in presence of (2S,4R)-1-((S)-2-(5-azidopentanamido)-3,3-dimethylbutanoyl)-4-hydroxy-N-(4-(4-methylthiazol-5-yl)benzyl)pyrrolidine-2-carboxamide by MTT assay. Format: toxicity, cell-based. To be noted: human, hek293, 48 h.
In data set [9] the test system is U-87 MG. The data set is described as follows: Induction of apoptosis in human U87 cells assessed as late apoptotic cells at 10 uM incubated for 48 hrs in presence of (2S,4R)-1-((S)-2-(5-azidopentanamido)-3,3-dimethylbutanoyl)-4-hydroxy-N-(4-(4-methylthiazol-5-yl)benzyl)pyrrolidine-2-carboxamide by Annexin V-FLTC/PI staining based flow cytometry (reference value: 3.71 %). Format: functional, U-87MG ATCC.

Data set [10] concerns U-87 MG. The data set is described as follows: Induction of apoptosis in human U87 cells assessed as viable cells at 10 uM incubated for 48 hrs in presence of (2S,4R)-1-((S)-2-(5-azidopentanamido)-3,3-dimethylbutanoyl)-4-hydroxy-N-(4-(4-methylthiazol-5-yl)benzyl)pyrrolidine-2-carboxamide by Annexin V-FLTC/PI staining based flow cytometry (reference value: 86.74 %). Format: functional, U-87MG ATCC. To be noted: read-out: Activity.

For data set [11], the target named is T1, Ephrin type-B receptor 4 (Homo sapiens). The data set is described as follows: Induction of EphB4 degradation in human U87 cells at 10 uM incubated for 48 hrs in presence of 4-(4-(3-(4-chloro-3-(trifluoromethyl)phenyl)ureido)phenoxy)-N-(prop-2-yn-1-yl)picolinamide by Western blot analysis. Format: cell-based.
In data set [12] the test system is HEK293. The data set is described as follows: Cytotoxicity against HEK293 cells at low concentration incubated for 48 hrs in presence of 4-(4-(3-(4-chloro-3-(trifluoromethyl)phenyl)ureido)phenoxy)-N-(prop-2-yn-1-yl)picolinamide by MTT assay. To be noted: human, hek293, 48 h. Format: toxicity, cell-based.
A short description of data set [13]: Stability of compound in DMEM medium by HPLC analysis. Format: physicochemical.
Data set [14] has as its system U-87 MG. The data set is described as follows: Induction of apoptosis in human U87 cells assessed as early apoptotic cells at 1 uM incubated for 48 hrs in presence of 4-(4-(3-(4-chloro-3-(trifluoromethyl)phenyl)ureido)phenoxy)-N-(prop-2-yn-1-yl)picolinamide by Annexin V-FLTC/PI staining based flow cytometry (reference value: 8.95 %). Format: functional, U-87MG ATCC.

Data set [15] concerns the target Platelet-derived growth factor receptor beta (Homo sapiens) (UniProt P09619). The data set is described as follows: Induction of PDGFR-beta degradation in human U87 cells at 10 uM incubated for 48 hrs by Western blot analysis. It is filed as cell-based.
Data set [16] has as its system U-87 MG. The data set is described as follows: Induction of apoptosis in human U87 cells assessed as necrotic cells at 20 uM incubated for 48 hrs in presence of 4-(4-(3-(4-chloro-3-(trifluoromethyl)phenyl)ureido)phenoxy)-N-(prop-2-yn-1-yl)picolinamide by Annexin V-FLTC/PI staining based flow cytometry (reference value: 0.60 %). It is filed as functional, U-87MG ATCC.

The structures appear in SMILES notation. Active and inactive are the calls of the source. No cut-off for these calls is given here.

Sequence of Serine/threonine-protein kinase B-raf (Homo sapiens) (P15056 whole entry): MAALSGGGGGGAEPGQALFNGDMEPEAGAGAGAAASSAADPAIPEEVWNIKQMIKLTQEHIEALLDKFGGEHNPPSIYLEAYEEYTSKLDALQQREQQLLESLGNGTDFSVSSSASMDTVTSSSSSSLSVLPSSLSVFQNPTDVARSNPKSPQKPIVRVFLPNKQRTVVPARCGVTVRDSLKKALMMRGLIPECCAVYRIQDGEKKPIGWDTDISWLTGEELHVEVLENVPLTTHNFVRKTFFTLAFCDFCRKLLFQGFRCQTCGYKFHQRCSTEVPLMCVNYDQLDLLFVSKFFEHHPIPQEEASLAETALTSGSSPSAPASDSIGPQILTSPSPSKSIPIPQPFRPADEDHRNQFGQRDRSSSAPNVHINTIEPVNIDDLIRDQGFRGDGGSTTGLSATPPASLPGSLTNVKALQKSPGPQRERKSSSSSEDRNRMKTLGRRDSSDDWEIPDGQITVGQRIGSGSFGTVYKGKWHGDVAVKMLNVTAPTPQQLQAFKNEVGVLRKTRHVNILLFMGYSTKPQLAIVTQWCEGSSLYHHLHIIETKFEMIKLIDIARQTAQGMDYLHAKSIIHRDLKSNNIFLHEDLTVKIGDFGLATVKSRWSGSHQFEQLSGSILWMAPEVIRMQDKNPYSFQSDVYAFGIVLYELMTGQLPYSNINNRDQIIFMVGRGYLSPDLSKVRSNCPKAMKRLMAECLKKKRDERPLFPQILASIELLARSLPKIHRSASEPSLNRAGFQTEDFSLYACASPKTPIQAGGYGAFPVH
Sequence of Platelet-derived growth factor receptor beta (Homo sapiens) (P09619 whole entry): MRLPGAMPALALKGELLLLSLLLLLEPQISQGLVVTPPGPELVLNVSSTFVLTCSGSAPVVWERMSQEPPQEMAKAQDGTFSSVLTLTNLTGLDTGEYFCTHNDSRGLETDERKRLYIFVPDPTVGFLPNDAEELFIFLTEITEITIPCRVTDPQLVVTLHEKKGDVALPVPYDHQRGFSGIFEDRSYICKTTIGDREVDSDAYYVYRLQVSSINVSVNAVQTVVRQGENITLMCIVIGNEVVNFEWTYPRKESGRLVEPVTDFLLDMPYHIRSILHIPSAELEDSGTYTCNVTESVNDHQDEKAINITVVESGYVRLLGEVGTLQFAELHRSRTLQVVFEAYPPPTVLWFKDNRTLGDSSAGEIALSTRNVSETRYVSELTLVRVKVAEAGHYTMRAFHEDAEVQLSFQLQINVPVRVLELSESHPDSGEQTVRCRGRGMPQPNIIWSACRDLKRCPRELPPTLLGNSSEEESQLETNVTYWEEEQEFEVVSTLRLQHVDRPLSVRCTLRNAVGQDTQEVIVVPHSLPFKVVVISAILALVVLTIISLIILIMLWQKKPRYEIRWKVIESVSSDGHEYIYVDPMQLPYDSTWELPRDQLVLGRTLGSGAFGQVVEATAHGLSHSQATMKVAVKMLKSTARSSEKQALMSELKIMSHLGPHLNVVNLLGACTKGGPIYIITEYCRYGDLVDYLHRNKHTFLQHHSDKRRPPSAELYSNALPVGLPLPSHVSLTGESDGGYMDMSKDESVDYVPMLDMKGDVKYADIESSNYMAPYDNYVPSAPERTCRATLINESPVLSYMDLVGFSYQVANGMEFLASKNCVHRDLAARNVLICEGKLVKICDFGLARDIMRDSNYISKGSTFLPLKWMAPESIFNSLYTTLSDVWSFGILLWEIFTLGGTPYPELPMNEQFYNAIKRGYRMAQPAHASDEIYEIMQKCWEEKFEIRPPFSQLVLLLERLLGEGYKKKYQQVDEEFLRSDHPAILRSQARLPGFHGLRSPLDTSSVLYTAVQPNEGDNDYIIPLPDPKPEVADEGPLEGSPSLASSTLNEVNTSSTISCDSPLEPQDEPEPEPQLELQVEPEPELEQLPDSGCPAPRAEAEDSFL

On to `C#CCNC(=O)c1cc(Oc2ccc(NC(=O)Nc3ccc(Cl)c(C(F)(F)F)c3)cc2)ccn1`, for which the outcome in data set [1] was Active. Moreover, the IC50 in the data set on A549 is 1.06 µM; in the data set on U-87 MG [6], 5.68 µM. Besides, the Activity entry in the data set with HEK293 [2] is “Toxic”; in the data set on U-87 MG [3], 1.02%; with U-87 MG [5], “Dose-Dependent Effect”; with HEK293 [8], “Non-Toxic”; in the data set with U-87 MG [9] it was 72.58%. In addition, in [4], the outcome was inactive. Moreover, the viability at 20 µM in the data set with U-87 MG [7] stood at 9.88%. Further, the viability at 10 µM in the data set with U-87 MG [10] came to 1.74%.
On to `[N-]=[N+]=NCCCC(=O)Nc1cccc2c1C(=O)N(C1CCC(=O)NC1=O)C2=O` (configuration not stated), for which the result in [11] and in [15] was Active. In addition, the Activity entry with HEK293 [12] is listed as “Non-Toxic”; in the data set with U-87 MG [14] it was 11.69%; with U-87 MG [16] it was 6.36%. In [13], the Stability entry is recorded as “Unstable”.

The values are drawn from ChEMBL document CHEMBL5620355, “Discovery of intracellular self-assembly protein degraders driven by tumor-specific activatable bioorthogonal reaction” (Eur J Med Chem, 2023).
